In patent US20140234868A1, “USE FOR GLYCOLIPOPROTEIN GINTONIN, ISOLATED AND IDENTIFIED FROM GINSENG, AS A NATURAL MEDICAL-PLANT DERIVED LIGAND” (KONKUK UNIVERSITY INDUSTRIAL COOPERATION CORP., priority 2011, published 2014):

Key:
BKCaK+ channels = assay: BKCa K+ channel activity in Xenopus oocytes, two-electrode voltage clamp; assay type: cell-based; settings: 2-APB 100 μM, BAPTA-AM, PMA 1 μM; for effect on gintonin-induced BKCaK+ channel activation: Kil6425 10 μM, U73122, U73343 1 μM; for effect on ginsenoside Rg3-induced BKCaK+ channel activity: U73122 1 μM
Method: (§1) Xenopus laevis frogs were obtained from Xenopus I (Ann Arbor, Mich.). Their care and handling were in accordance with the highest standards of institutional guidelines. To isolate oocytes, the frogs were operated on under anesthesia with an aerated solution of 3-aminobenzoic acid ethyl ester. Oocytes were separated by treatment with collagenase and agitation for two hours in a Ca^2+-free medium containing 82.5 mM NaCl, 2 mM KCl, 1 mM MgCl2, 5 mM HEPES, 2.5 mM sodium pyruvate, 100 units/ml penicillin and 100 μg/ml streptomycin.
(§2) Stage V-VI oocytes were collected and stored in ND96 (96 mM NaCl, 2 mM KCl, 1 mM MgCl2, 1.8 mM CaCl2, and 5 mM HEPES, pH 7.4) supplemented with 50 μg/ml gentamicin. This oocyte containing solution was maintained at 18° C. with continuous gentle shaking while the ND96 medium was changed with a fresh one every day.
Two-electrode voltage-clamp recordings were obtained from individual oocytes placed in a small Plexiglas net chamber (5 ml). Electrophysiological experiments were performed using microelectrodes filled with 3 M KCl (resistance of 0.2-0.7 MΩ) and an Oocyte Clamp amplifier (OC-725C; Warner Instrument, CT, USA) to record BKc K^+ channel activity at room temperature (Choi et al., Mol Cells 31, 133-140, 2011). For physiological recordings of BKCaK^+ channel activity, oocytes were first perfused with a Cl^−- and Ca^2+-free solution (mM: 96 NaOH, 2 KOH, 8 Mg-gluconate, 5 HEPES, 5 EGTA, pH 7.4 with methanesulfonic acid) supplemented with 500 μM anthracene-9-carboxylic acid, a Cl^− channel blocker, to block endogenous Cl-channels (Lu et al., J. Biol. Chem. 265, 16190-16194.1990). Then, the oocytes were clamped at −80 mV holding potential, followed by step depolarization from the holding potential to +40 mV at regular intervals of […] for 400 ms to record outward currents.

LPA receptor = assay: Gintonin-induced intracellular Ca2+ increase in LPA receptor-expressing B103 cells (subtype not named); assay type: cell-based, human; settings: pretreated
Source text: Optionally, the method may further comprise (8) pre-treating the suspended B103 cells with LPA receptor antagonists and LPA receptor-mediated signaling-relevant drugs (e.g., pertussis toxin, PLC inhibitors, IP3 receptor antagonists) to examine whether the cells decrease or increase in intracellular free Ca^2+, prior to treatment with gintonin; (9) performing site-directed mutagenesis to identify an amino acid of LPA receptors with which gintonin interact to activate the LPA; and (10) examining whether gintonin activates orphan GPCRs including GPR35 and GPR87, and free fatty acid GPCRs including GPR40, GPR41, GPR43 and GPR120, all known for activation by LPA.
In this Example, gintonin, or ginsenoside Rb1 or Rg1 was examined for its ability to induce a transient increase of [Ca^2+]i in Fura-2AM-loaded B103 cells which were transfected with LPA receptors and in Fura-2AM-loaded B103 cells which were not transfected with LPA receptors. […]
(§3) Briefly, Fura 2-AM loaded cells were diluted with an experimental medium to a final density of 2˜4×10^6 cells/mL, and transferred to polystyrene cuvettes (Elkay Ultra-VU). […] Emission was detected at 510 nm Excitation and emission slit widths were 5 nm Background calibration was performed as described by Jørgensen et al.

endogenous CaCC = assay: Endogenous Ca2+-activated channel (CaCC) activation in Xenopus oocytes; assay type: cell-based, Xenopus laevis; settings: Kil6425 10 μM; U73122 1 μM; 2-APB 100 μM; BAPTA 100 μM 3 h
[1] = system: NMDA receptors (NR1 and NR2); assay: NMDA receptor activity in Xenopus oocytes, two-electrode voltage clamp; assay type: cell-based; settings: Kil6425 10 μM, 2-APB 100 μM, BAPTA 100 μM 3 h
Method: cDNAs of NMDA receptor subunits (NR1 and NR2) were employed (Zheng et al., J Neurosci. 17, 8676-8686, 1997). cDNAs (100 ng/40 nl) corresponding to respective NMDA receptor subunits (NR1 and NR2) were injected into animal or vegetal poles of oocytes by use of a […] (VWR Scientific, USA) and incubated for 4-5 days after injection (Zheng et al., J Neurosci. 17, 8676-8686, 1997).
as §1
as §2, with “changed to” for “changed with”
Two-electrode voltage-clamp recordings were obtained from individual oocytes placed in a small Plexiglas net chamber (5 ml). Electrophysiological experiments were performed using microelectrodes filled with 3 M KCl (resistance of 0.2-0.7 MΩ) and an Oocyte Clamp amplifier (OC-725C; Warner Instrument, Hamden, Conn.). For physiological recordings of NMDA receptor activity, oocytes were first perfused with Mg^2+-free ND96 (mM: 96 NaOH, 2 KOH, 0.3 CaCl2, 5 HEPES pH 7.6 with methanesulfonic acid). Then, the oocytes were clamped at −60 mV holding potential, followed by recoding NMDA currents (induced by administering […]) (Zheng et al., J Neurosci. 17, 8676-8686, 1997; Chang and Kuo, J Neurosci. 28, 1546-1556, 2008).

LPA3 receptor = biological target: T1, LPA3 receptor (Homo sapiens, UniProt Q9UBY5); assay: Intracellular free Ca2+ (Fura-2AM) in LPA3-expressing B103 cells; assay type: cell-based; settings: LPA3 receptor-expressing B103 cells; read-out: EC50, intracellular calcium increase
T1 construct: host or cells: B103 rat neuroblastoma cells
T1 sequence (Q9UBY5 1-353): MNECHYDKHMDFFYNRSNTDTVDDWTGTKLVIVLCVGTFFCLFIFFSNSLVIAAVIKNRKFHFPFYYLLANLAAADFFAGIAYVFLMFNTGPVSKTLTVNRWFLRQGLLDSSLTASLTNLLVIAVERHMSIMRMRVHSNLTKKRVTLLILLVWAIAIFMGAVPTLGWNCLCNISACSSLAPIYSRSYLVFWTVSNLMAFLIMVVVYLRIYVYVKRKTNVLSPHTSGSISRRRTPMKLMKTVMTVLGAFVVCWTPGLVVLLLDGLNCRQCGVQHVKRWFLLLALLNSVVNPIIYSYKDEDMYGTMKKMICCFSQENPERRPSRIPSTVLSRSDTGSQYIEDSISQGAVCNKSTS
Source text: (§4) LPA family receptors are endogenous to cells of most organs. B103 rat neuroblastoma cells, known as LPA receptor-null cells (Valentine et al., Biochim Biophys Acta 1780. 597-605) were transiently transfected with a plasmid (vector) carrying one of genes coding for LPA1(edg-2), LPA2(edg-4), LPA3(edg-7), LPA4, LPA5 and LPA6 receptors or a plasmid carrying none of them (empty vector). Two or three days after transfection, the cells are suspended, and made permeable. Then, the permeable cells are treated with Fura-2AM, a fluorescent dye binding to calcium, and then with gintonin, followed by spectrofluorephotometry to examine whether gintonin induces an increase in intracellular free Ca^2+ level.
(1) preparing large quantities of plasmids carrying respective LPA family receptor genes and an empty plasmid carrying none of them through amplification and purification (maxi-preparation); (2) verifying the expression of LPA receptors wherein B103 cells are transfected with haematoglutin (HA)-tagged LPA receptors, and then subjected to Western blotting analysis using an anti-HA primary antibody and a horseradish peroxidase (HRP)-conjugated secondary antibody to develop a color; (3) verifying the expression of LPA receptors wherein B1-3 cells are transfected with haematoglutin (HA)-tagged LPA receptors, and then subjected to confocal laser microscopy using an anti-HA antibody and a fluorescence dye Cy3-conjugated secondary antibody; (4) transfecting the empty plasmid and each of the plasmids carrying LPA family receptor genes into B103 cells; (5) treating the transfected B103 cells with trypsin (0.05% trypsin with EDTA, w/v) 2-3 days post-transfection, to give a cell suspension; (6) culturing the suspended B103 cells with Fura-2AM (2.5 μM); and (7) treating the suspended B103 cells with gintonin and quantifying a change in intracellular free Ca^2+ level in a cuvette by spectrofluorephotometry using Fura-2AM.
Human LPA (lysophosphatidic acid) receptor subtypes, orphan GPCRs (G protein coupled receptors) and plasmids carrying GPCRs were purchased from Missouri S&T resource Center (www.cDNA.org).
The transient transfection of LPA receptor subtypes was carried out with the aid of Lipofectamine 2000 of Invitrogen. A plasmid (10.8 μg) carrying each LPA receptor (LPA1, LPA2, LPA3, LPA4, LPA5, and LPA6) was transfected into B103 cells grown in 10-cm dishes, and incubated for 2 days prior for use in experiments.
In this Example, gintonin, or ginsenoside Rb1 or Rg1 was examined for its ability to induce a transient increase of [Ca^2+]i in Fura-2AM-loaded B103 cells which were transfected with LPA receptors and in Fura-2AM-loaded B103 cells which were not transfected with LPA receptors. To this end, B103 cells (2˜4×10^6/ml) pre-treated with Fura-2AM were suspended in a 1.5 mM Ca^2+-containing buffer or Ca^2+-free buffer, and incubated 37° C. for 30 min, followed by analyzing intracellular calcium levels in the B103 cells in the presence of gintonin or ginsenosides.
Briefly, B103 cells (1˜2×10^6/ml) were mixed with 2.5 μM Fura 2-AM in a Ca^2+ buffer (pH 7.4) containing NaCl 120 mM, KCl 5 mM, MgCl2 1 mM, CaCl2 1.5 mM, glucose 10 mM, and HEPES 25 mM, and a Ca^2+ free buffer (pH 7.4) containing NaCl 120 mM, KCl 5 mM, MgCl2 1 mM, EGTA 0.2 mM, glucose 10 mM, and HEPES 25 mM at 37° C. for 30 min in water bath with shaking according to the Jørgensen method, and washed three times with Ca^2+ buffer or Ca^2+ free buffer to remove excess Fura-2AM.
[Ca^2+]i was estimated in Fura 2AM-loaded cells in suspension using an RF-5300PC intracellular ion measurement system (Shimadzu Corporation, Japan).
Briefly, Fura 2-AM loaded cells were diluted with an experimental medium to a final density of 2˜4×10^6 cells/mL, and transferred to polystyrene cuvettes (Elkay Ultra-VU). The cells were stirred using Teflon-coated magnets, and the cuvette housing was thermostatically controlled at 37° C. The excitation wavelengths were alternated between 340 and 380 nm under computer control. […]

[2] = system: LPA receptor-null B103 cells (empty vector); assay: Intracellular free Ca2+ (Fura-2AM) in B103 cells transfected with empty vector; assay type: cell-based, rat; settings: B103 cells not expressing LPA3 receptor
Source text: as §4, with “level. […]” for “level.”
as §3, with “al. […]” for “al.”

Row | EC50 (LPA3 receptor) [nM] | Compound | effect on gintonin-induced BKCaK+ channel activation (BKCaK+ channels) | effect on ginsenoside Rg3-induced BKCaK+ channel activity (BKCaK+ channels) | effect of pretreatment on gintonin-induced intracellular calcium increase (LPA receptor) | effect on gintonin-induced CaCC activation (endogenous CaCC) | effect on NMDA-induced inward current ([1]; U73122 1 μM) | effect on gintonin-induced NMDA receptor activation ([1]; gintonin 1 μg/ml, U73122, U73343 1 μM, genistein 10 μM, PP2, PP3 30 μM) | increase of intracellular calcium level [2]
1 |  | O=C(O)CN(CC(=O)O)c1ccccc1OCCOc1ccccc1N(CC(=O)O)CC(=O)O [BAPTA] | a reduction in BKCaK^+ channel activation | not blocked | became invalid | a reduction in gintonin-induced CaCC activation | normal NMDA-induced inward currents | reduction | 
2 |  | CCCCCCCCCCCCCC(=O)O[C@@H]1[C@@H](C)[C@@]2(O)[C@@H](C=C(CO)C[C@]3(O)C(=O)C(C)=C[C@@H]23)[C@@H]2C(C)(C)[C@]12OC(C)=O [PMA] | caused the gintonin-induced activation of BKCaK^+ channels to disappear | had no influences on the activity of ginsenoside Rg3 | blocked |  |  |  | 
3 | 58.9 ± 5.54 | lysophosphatidic acid [LPA, reference compound] |  |  |  |  |  |  | did not induce the increase of intracellular calcium level
